# Where a name gives a salt, the structure may show the parent alone.
# Assays:
# Experiment in all cases: microbe, parasite or virus in culture
# [1] = test system: pseudotyped VSV G particles (VSVpp) in Huh7-high CD81 cells; type: cell-based, vesicular stomatitis virus; details: Vesicular stomatitis virus, 72 h, read-out: VSVpp (EC50, μM)
# [2] = test system: Pseudotyped HCV GT1a particles (HCVpp), entry into Huh7-high CD81 cells; type: cell-based, HCV GT1a H77 strain; details: Hepatitis C virus, 72 h, read-out: HCVpp GT-1a (EC50, μM)
# [3] = test system: Pseudotyped HCV GT1b particles (HCVpp), entry into Huh7-high CD81 cells; type: cell-based, HCV GT1b Con1 strain; details: Hepatitis C virus, GT1B, 72 h, read-out: HCVpp GT-1b (EC50, μM)
SMILES,EC50 [1] [µM],EC50 [2] [µM],EC50 [3] [µM]
"CS(=O)(=O)c1cccc(-c2c(Cl)cc(Nc3n[nH]c(N)n3)cc2Cl)c1 [Compound 114, N-3-(2,6-Dichloro-3′-methanesulfonyl-biphenyl-4-yl)-1H-[1,2,4]triazole-3,5-diamine]",18.2,0.01,0.069
"Nc1nc(Nc2ccc(-c3ccccc3)c(Cl)c2)n[nH]1 [Compound 144, N*3*-(2-Chloro-biphenyl-4-yl)-1H-[1,2,4]triazole-3,5-diamine]",34.8,0.333,2.92
"Nc1nc(Nc2ccc(-c3ccc(F)cc3)c(Cl)c2)n[nH]1 [Compound 145, N*3*-(2-Chloro-4′-fluoro-biphenyl-4-yl)-1H-[1,2,4]triazole-3,5-diamine]",39.1,0.532,6.02
"CS(=O)(=O)c1ccc(-c2c(Cl)cc(Nc3n[nH]c(N)n3)cc2C(F)(F)F)cc1 [Compound 187, N3-(2-chloro-4′-(methylsulfonyl)-6-(trifluoromethyl)biphenyl-4-yl)-1H-1,2,4-triazole-3,5-diamine]",1.58,0.016,0.046
"CS(=O)(=O)NCc1ccc(-c2c(Cl)cc(Nc3n[nH]c(N)n3)cc2C(F)(F)F)cc1 [Compound 186, N-((4′-(5-amino-1H-1,2,4-triazol-3-ylamino)-2′-chloro-6′-(trifluoromethyl)biphenyl-4-yl)methyl)methanesulfonamide]",19.7,0.011,0.038
"CC(C)(C)OC(=O)N1CCC(S(=O)(=O)c2ccc(-c3c(Cl)cc(Nc4n[nH]c(N)n4)cc3C(F)(F)F)cc2)CC1 [Compound 1, 4-[4′-(5-Amino-1H-[1,2,4]triazol-3-ylamino)-2′-chloro-6′-trifluoromethyl-biphenyl-4-sulfonyl]-piperidine-1-carboxylic acid tert-butyl ester]",> 10,0.014,0.001
"CC(C)(C)NS(=O)(=O)c1ccc(-c2c(Cl)cc(Nc3n[nH]c(N)n3)cc2C(F)(F)F)cc1OC(F)(F)F [Compound 217, 4′-(5-Amino-1H-[1,2,4]triazol-3-ylamino)-6′-chloro-3-trifluoromethoxy-2′-trifluoromethylbiphenyl-4-sulfonic acid tert-butylamide]",7.5,0.003,
"CC(C)(C)NS(=O)(=O)c1ccc(-c2c(Cl)cc(Nc3n[nH]c(N)n3)cc2C(F)(F)F)cc1 [Compound 219, 4′-(5-Amino-1H-[1,2,4]triazol-3-ylamino)-6′-chloro-2′-trifluoromethyl-biphenyl-4-sulfonic acid tert-butylamide]",16.2,0.011,
"CC(C)S(=O)(=O)c1ccc(-c2c(Cl)cc(Nc3n[nH]c(N)n3)cc2C(F)(F)F)cc1 [Compound 181, N3-(2-chloro-4′-(isopropylsulfonyl)-6-(trifluoromethyl)biphenyl-4-yl)-1H-1,2,4-triazole-3,5-diamine]",,0.021,0.059
"Nc1n[nH]c(Nc2cc(F)c(-c3ccc(S(=O)(=O)N4CCOCC4)cc3)c(C(F)(F)F)c2)n1 [Compound 78, N^5-[6-Fluoro-4′-(morpholine-4-sulfonyl)-2-trifluoromethylbiphenyl-4-yl]-1H-[1,2,4]-triazole-3,5-diamine]",8.18,,0.346
"Nc1nc(Nc2cc(Cl)c(-c3ccc(S(=O)(=O)C4CC4)cc3)c(C(F)(F)F)c2)n[nH]1 [Compound 188, N3-(2-chloro-4′-(cyclopropylsulfonyl)-6-(trifluoromethyl)biphenyl-4-yl)-1H-1,2,4-triazole-3,5-diamine]",0.09,,0.089
"COc1ccc(-c2c(Cl)cc(Nc3n[nH]c(N)n3)cc2C(F)(F)F)cc1S(=O)(=O)NC1(C)CN(C(=O)OC(C)(C)C)C1 [Compound 212, tert-butyl 3-(4′-(5-amino-1H-1,2,4-triazol-3-ylamino)-2′-chloro-4-methoxy-6′-(trifluoromethyl)biphenyl-3-ylsulfonamido)-3-methylazetidine-1-carboxylate]",1.42,,0.005
"Nc1nc(Nc2cc(Cl)c(-c3ccc(OCc4ccccn4)cc3)c(Cl)c2)n[nH]1 [Compound 284, N*3*-[2,6-Dichloro-4′-(pyridin-2-ylmethoxy)-biphenyl-4-yl]-1H-[1,2,4]triazole-3,5-diamine]",> 10,,0.576
"CC(C)(C)CCN1CCCC(CS(=O)(=O)c2ccc(-c3c(Cl)cc(Nc4n[nH]c(N)n4)cc3C(F)(F)F)cc2)C1 (stereo not shown) [Compound 56, N*3*-{2-Chloro-4′-[1-(3,3-dimethyl-butyl)-piperidin-3-ylmethanesulfonyl]-6-trifluoromethyl-biphenyl-4-yl}-1H-[1,2,4]triazole-3,5-diamine; hydrochloride]",3.74,,0.046
"CC(C)(C)CCN1CCC(S(=O)(=O)c2ccc(-c3c(Cl)cc(Nc4n[nH]c(N)n4)cc3C(F)(F)F)cc2)CC1 [Compound 5, N*3*-{2-Chloro-4′-[1-(3,3-dimethyl-butyl)-piperidine-4-sulfonyl]-6-trifluoromethyl-biphenyl-4-yl}-1H-[1,2,4]triazole-3,5-diamine; hydrochloride]",> 10,,0.005
"COCCN1CCC(Oc2ccc(-c3c(Cl)cc(Nc4n[nH]c(N)n4)cc3C(F)(F)F)cc2)CC1 [Compound 143, N*3*-{6-Chloro-4′-[1-(2-methoxy-ethyl)-piperidin-4-yloxy]-2-trifluoromethyl-biphenyl-4-yl}-1H-[1,2,4]triazole-3,5-diamine hydrochloride]",8.98,,0.231
"CNC(=O)c1cc(-c2c(Cl)cc(Nc3n[nH]c(N)n3)cc2C(F)(F)F)ccc1F [Compound 292, 4′-(5-amino-1H-1,2,4-triazol-3-ylamino)-2′-chloro-4-fluoro-N-methyl-6′-(trifluoromethyl)biphenyl-3-carboxamide]",29.2,,0.647
"CS(=O)(=O)Nc1cccc(-c2c(Cl)cc(Nc3n[nH]c(N)n3)cc2C(F)(F)F)c1 [Compound 290, N-(4′-(5-amino-1H-1,2,4-triazol-3-ylamino)-2′-chloro-6′-(trifluoromethyl)biphenyl-3-yl)methanesulfonamide]",14.4,,0.149
"CS(=O)(=O)c1cccc(-c2c(Cl)cc(Nc3n[nH]c(N)n3)cc2C(F)(F)F)c1 [Compound 195, N3-(2-chloro-3′-(methylsulfonyl)-6-(trifluoromethyl)biphenyl-4-yl)-1H-1,2,4-triazole-3,5-diamine]",39.7,,0.212
"CC(C)(C)OC(=O)N1CC[C@H](Oc2ccc(-c3c(Cl)cc(Nc4n[nH]c(N)n4)cc3Cl)cc2)C1 [Compound 273, (S)-3-[4′-(5-Amino-1H-[1,2,4]triazol-3-ylamino)-2′,6′-dichloro-biphenyl-4-yloxy]-pyrrolidine-1-carboxylic acid tert-butyl ester]",> 10,,0.28
"CC(C)CCS(=O)(=O)c1ccc(-c2c(Cl)cc(Nc3n[nH]c(N)n3)cc2C(F)(F)F)cc1 [Compound 61, N*3*-[6-Chloro-4′-(3-methyl-butane-1-sulfonyl)-2-trifluoromethyl-biphenyl-4-yl]-1H-1,2,4-triazole-3,5-diamine]",> 10,,0.013
"CC(C)(C)OC(=O)N1CCC(Oc2ccc(-c3c(Cl)cc(Nc4n[nH]c(N)n4)cc3Cl)cc2)CC1 [Compound 268, 4-[4′-(5-Amino-1H-[1,2,4]triazol-3-ylamino)-2′,6′-dichloro-biphenyl-4-yloxy]-piperidine-1-carboxylic acid tert-butyl ester]",> 10,,0.17
"CSc1ccc(-c2ccc(Nc3n[nH]c(N)n3)cc2Cl)c(F)c1 [Compound 156, N*3*-(2-Chloro-2′-fluoro-4′-methylsulfanyl-biphenyl-4-yl)-1H-[1,2,4]triazole-3,5-diamine]",11.3,,3.77
"Nc1nc(Nc2ccc(-c3ccc(F)c(F)c3)c(C(F)(F)F)c2)n[nH]1 [Compound 152, N*3*-(3′,4′-Difluoro-2-trifluoromethyl-biphenyl-4-yl)-1H-[1,2,4]triazole-3,5-diamine]",20.4,,0.575
"CN1CCN(S(=O)(=O)c2ccc(-c3c(Cl)cc(Nc4n[nH]c(N)n4)cc3C(F)(F)F)cc2)CC1 [Compound 22, N*3*-[2-Chloro-4′-(4-methyl-piperazine-1-sulfonyl)-6-trifluoromethyl-biphenyl-4-yl]-1H-[1,2,4]triazole-3,5-diamine]",13.5,,0.053
"NC(=O)c1cccc(-c2c(Cl)cc(Nc3n[nH]c(N)n3)cc2Cl)c1 [Compound 158, 4′-(5-amino-1H-1,2,4-triazol-3-ylamino)-2′,6′-dichlorobiphenyl-3-carboxamide]",> 10,,0.539
"COc1ccc(-c2c(Cl)cc(Nc3n[nH]c(N)n3)cc2C(F)(F)F)cc1C(F)(F)F [Compound 231, N*3*-(6-Chloro-4′-methoxy-2,3′-bis-trifluoromethyl-biphenyl-4-yl)-1H-[1,2,4]triazole-3,5-diamine]",> 10,,0.41
"CNCCOc1ccc(-c2c(Cl)cc(Nc3n[nH]c(N)n3)cc2Cl)cc1 [Compound 263, N*3*-[2,6-Dichloro-4′-(2-methylamino-ethoxy)-biphenyl-4-yl]-1H-[1,2,4]triazole-3,5-diamine]",3.75,,0.059
"CC(C)(C)NS(=O)(=O)c1cccc(-c2c(Cl)cc(Nc3n[nH]c(N)n3)cc2C(F)(F)F)c1 [Compound 176, 4′-(5-amino-1H-1,2,4-triazol-3-ylamino)-N-tert-butyl-2′-chloro-6′-(trifluoromethyl)biphenyl-3-sulfonamide]",9.6,,0.019

# — patent US9693997B2, “Antiviral compounds” (priority 2013, dated 2017)
